Source: patent US11123324B2, “Immunomodulator” (priority 2016, dated 2021)
“Also recorded” adds a separate entry of the source.

What was measured:
[1] = tested on: B cells (mouse splenic cells); assay: In vitro class switching induction assay in mouse splenic cell culture with anti-mouse/rat CD40, isotype antibody titer by ELISA; assay type: cell-based; settings: for IgE induction, secondary screening / IgG1 induction, secondary screening: ELISA; for IgE induction, secondary screening / IgG1 induction, secondary screening / IgA induction, secondary screening: 3.75 μM; for IgA induction, secondary screening: IgA sandwich ELISA, day 10 after addition; for IgE antibody production on day 7 / total IgG antibody production on day 7: Indolactam V 5, 10 μM
Description: Under conditions of free access to food and water, 5- to 8-week-old wild-type BALB/cAJcl (purchased from CLEA Japan, Inc.) was euthanized by cervical dislocation under isoflurane anesthesia. 70% Ethanol was sprayed, left abdomen was incised and the spleen was aseptically isolated. The spleen was subjected to a mild crushing treatment with two sterilized glass slides in a culture petri dish containing 5 ml of cell culture medium (RPMI1640 added with 10% FCS, 0.05 μM 2 ME, 80 μg/ml gentamicin) to give a splenic single cell suspension. The cell suspension was placed in a 15 ml tube, stood for 5 min, and the supernatant free of tissue debris was transferred to a new 15 ml tube. A washing operation was performed twice with the above-mentioned cell culture medium to give the number of viable cells. B cells occupy 35% of the viable cells and the number of B cells was obtained by calculation.
Based on the B cell number obtained in Example 1, the splenic cell suspension was diluted with the above-mentioned cell culture medium to 5×10^5/ml B cells, and the cells were added to a 24-well culture dish. The compound and cytokine were added to each well as shown in the results. […]
[…] As for ELISA capture antibody, each isotype antibody (unlabeled, mentioned later) was diluted to 2 μg/ml with 0.05 M Na2CO3 solution, added to ELISA plate (C96 MAXISORP NUNC-Immunoplate, Thermo Scientific) at 50 μl/well, and the plate was coated overnight at 4° C.
The next day, the coated ELISA plate was washed 3 times with 1×PBS. After washing, 1% BSA-added 1×PBS (50 μl) was added to each well and blocking was carried out at room temperature for 1 hr. During the blocking reaction, a dilution series of each culture supernatant was prepared using 1% BSA-added 1×PBS. The diluted sample was added to the plate after blocking at 50 μl/well, and the mixture was reacted at room temperature for 1 hr. Thereafter, a washing operation was performed 3 times with 0.05% Tween 20-added 1×PBS solution. Then, the secondary antibody (alkaline phosphatase-labeled) (0.5 μg/ml) that recognizes each isotype was added at 50 μl/well, and the mixture was reacted at room temperature for 1 hr. A washing operation was performed 3 times with 0.05% Tween 20-added 1×PBS solution, a substrate solution (Phosphatase substrate Sigma 104) was added, the mixture was placed under shading at room temperature to allow for color development, and the absorbance (405 nm) was measured with a plate reader. The antibody titer was shown as a relative absorbance value in a graph, or the absolute value was calculated from comparison with the standard isotype antibody and shown graphically.
In the primary screening, 3,337 kinds of compounds (provided by Drug Discovery Initiative, The University of Tokyo) were subjected to in vitro class switching assay. The final concentration of the compounds was 3.75 μM, and DMSO was added at a final concentration of 0.25% and anti-mouse/rat CD40 was added at a final concentration of 1 μg/ml to all wells including the wells added with cytokine. As a negative control, DMSO and CD40 were added.
In the secondary screening, 22 kinds of the candidate compounds obtained by the primary screening were screened. The culture conditions were the same as those in the primary screening. As the positive control, each isotype control antibody (1 μg/ml) was added. […] Compound No. 2 (Sapintoxin D), No. 12 (PMA) and No. 18 (ROPA) were all protein kinase C (PKC) activators.
From the results of the secondary screening, a substance that specifically induces IgA is a PKC activator and it has a characteristic cyclic structure. As compounds having a similar structure, 17 kinds of compounds (K1-K17) including the above-mentioned 3 kinds were provided by the library of Drug Discovery Initiative, The University of Tokyo. […]

B cells (splenic cells) = assay: Dose dependency of class switching induction by compound alone (no CD40), isotype ELISA; assay type: cell-based, mouse; settings: 7 days; for IgA production by single stimulation free of CD40: each concentration tested (bryostatin 1 0-50 nM, 0-100 nM; Indolactam V 0-100 μM); for induction of IgE by single stimulation free of CD40 / induction of IgG by single stimulation free of CD40: each concentration tested
Description: Indolactam V and bryostatin 1 (Santa Cruz Biotechnology) were purchased, and induction of class switching was performed using splenic cells. To confirm dose dependency of compounds, stimulation was performed at the concentrations shown in FIG. 12, FIG. 13 and FIG. 14. For cell culture, the cells were added to each well of a 6 well plate at 1.0×10^6 B cells/1 ml/well and cultured for 7 days. The cells were cultured without adding anti-mouse/rat CD40 to all wells and the negative control was added with culture medium alone. Stimulation with each cytokine was used as a positive control. The final concentration of each cytokine was 1 μg/ml for anti-mouse/rat CD40, 12.5 ng/ml for IL-4, 20 μg/ml for LPS as in the above-mentioned experiments.
The antibody titer measurement of each isotype by ELISA was performed by a method similar to that mentioned above. As a result, it was confirmed at each concentration tested that IgA was produced and induction of IgG and IgE was not observed by single stimulation with each of bryostatin 1 and Indolactam V free of CD40.

[2] = tested on: alpha germline transcript; assay: RT-PCR confirmation of expression of alpha germline transcript in stimulated splenic cells; assay type: cell-based, mouse; settings: day 3 of stimulation; for expression of alpha germline transcript (RT-PCR): FIG. 11
Description: (§1) As evidence that class switching is in progress, the expression of alpha germline transcript and AID was confirmed by RT-PCR. Splenic cells were first stimulated with compound or cytokine under the same conditions as in Example 2. On day 3 of stimulation, floating cells were recovered and total RNA was extracted. cDNA was synthesized using random primers and RT-PCR was performed using the following primers.
(§2) PCR was performed using rTaq (TAKARA) and under the following conditions: […]

AID = assay: RT-PCR confirmation of expression of AID in stimulated splenic cells; assay type: cell-based, mouse; settings: day 3 of stimulation; for expression of AID (RT-PCR): FIG. 11
Description: as §1, §2

[3] = stated as known / considered, not tested; cited from earlier work
cultured splenic cells = assay: Proliferation / cell number of cultured splenic cells under stimulation; assay type: cell-based, mouse
Description: Based on the B cell number obtained in Example 1, the splenic cell suspension was diluted with the above-mentioned cell culture medium to 5×10^5/ml B cells, and the cells were added to a 24-well culture dish. The compound and cytokine were added to each well as shown in the results. DMSO was added such that the concentration of DMSO, which is a solvent of the compound was equivalent in each well (final concentration 0.25%). A mixed culture medium of the compound and splenic cells was subjected to static culture for one week under conditions of 37° C., 5% CO2.
Thus, a substance that has properties as a PKC activator but is free of carcinogenicity was searched for and bryostatin 1 (Santa Cruz Biotechnology sc-201407) was obtained as a candidate (FIGS. 6 and 7). […] Since bryostatin is a substance having a structure completely different from those of the compounds tested in the tertiary screening, those of ordinary skill in the art in consideration of the results of Example 3 and Example 4 readily appreciate that PKC activators in general can be used as substances that induce specific class switching to IgA. In the experiments shown in FIG. 6 and FIG. 7, the final concentration of Indolactam V was 5 μM and 10 μM from the left, and the final concentration of bryostatin 1 was 1 nM, 5 nM, 10 nM from the left.
It was considered to be more than the survival and maintenance of IgA-producing cells originally existed in the spleen. Expression of both transcripts was low when CD40 was not added for bryostatin 1. This may reflect the difference in the amount of cDNA used for RT-PCR.

| Molecule | IgE induction, secondary screening ([1]; with CD40) | IgG1 induction, secondary screening ([1]; with CD40) | IgE antibody production on day 7 ([1]; bryostatin 1 1, 5, 10 nM) | total IgG antibody production on day 7 ([1]; bryostatin 1 1, 5, 10 nM) | IgA production by single stimulation free of CD40 (B cells (splenic cells)) | induction of IgE by single stimulation free of CD40 (B cells (splenic cells)) | induction of IgG by single stimulation free of CD40 (B cells (splenic cells)) | expression of alpha germline transcript (RT-PCR) [2] | expression of AID (RT-PCR) (AID) | carcinogenicity [3] | also measured |
| --- | --- | --- | --- | --- | --- | --- | --- | --- | --- | --- | --- |
| CNc1ccccc1C(=O)O[C@@H]1[C@@H](C)[C@@]2(O)[C@@H](C=C(CO)C[C@]3(O)C(=O)C(C)=C[C@@H]23)[C@@H]2C(C)(C)[C@]12OC(C)=O [Compound No. 2, Sapintoxin D] | did not induce | did not induce |  |  |  |  |  |  |  |  | IgA induction, secondary screening ([1]; with CD40): induced IgA; also recorded: specifically induce IgA |
| CC(C)[C@H]1C(=O)N[C@H](CO)Cc2c[nH]c3cccc(c23)N1C [Indolactam V] |  |  | scarcely produced | scarcely produced | produced; also recorded: Only the induction of IgA is shown to occur | not observed | not observed | observed | observed | strong carcinogenicity | IgA inducing activity, tertiary screening ([1]; culture supernatant one week later, with CD40, Indolactam V 1-7 μM): very strong; IgA specific class switching, tertiary screening ([1]; triplicate, culture supernatant one week later, with CD40, Indolactam V 1, 3, 3.75, 5, 7 μM): induced IgA specific class switching; also recorded: best effect |
| CCC/C=C/C=C/C(=O)O[C@H]1/C(=C/C(=O)OC)C[C@H]2C[C@H]([C@@H](C)O)OC(=O)C[C@H](O)C[C@@H]3C[C@H](OC(C)=O)C(C)(C)[C@](O)(C[C@@H]4C/C(=C/C(=O)OC)C[C@H](/C=C/C(C)(C)[C@]1(O)O2)O4)O3 [bryostatin 1] |  |  | scarcely produced | scarcely produced | produced; also recorded: Only the induction of IgA is shown to occur | not observed | not observed | observed | observed | did not show carcinogenicity | IgA induction potency compared with Indolactam V ([1]; Example 4, FIG. 6): inferior; specific class switching to IgA (Example 4) ([1]; Example 4, FIGS. 6 and 7): induces specific class switching to IgA; IgA antibody titer on day 5 compared to the negative control (0.02% DMSO+CD40) ([1]; bryostatin 1 1, 5, 10 nM, with CD40, day 5): increased significantly; IgA antibody titer on day 7 ([1]; bryostatin 1 1, 5, 10 nM, with CD40, day 7): low; expression of alpha germline transcript (RT-PCR), CD40 not added ([2]; without CD40): low; expression of AID (RT-PCR), CD40 not added (AID; without CD40): low; proliferation of cultured cells, compound alone (cultured splenic cells; bryostatin 1 alone (Example 5)): scarcely observed; proliferation of cultured cells (cultured splenic cells; bryostatin 1 stimulation (Example 4)): scarcely observed; cell number on day 7 (cultured splenic cells; stimulated with bryostatin 1, day 7): extremely small |
| CCCCCCCCCCCCCC(=O)O[C@@H]1[C@@H](C)[C@@]2(O)[C@@H](C=C(CO)C[C@]3(O)C(=O)C(C)=C[C@@H]23)[C@@H]2C(C)(C)[C@]12OC(C)=O [compound 12, phorbol 12-myristate 13-acetate] | did not induce | did not induce |  |  |  |  |  |  |  |  | IgA induction, secondary screening ([1]; with CD40, listed as No. 12): induced IgA; also recorded: specifically induce IgA |
| Resiniferonol-9,13,14-orthophenyl acetate [compound 18] | did not induce | did not induce |  |  |  |  |  |  |  |  | IgA induction, secondary screening ([1]; with CD40, listed as No. 18): induced IgA; also recorded: specifically induce IgA |
